“Also recorded” adds a separate entry of the source. Like-named read-outs stand apart in the source and are kept apart here.
Legend:
[1] = test system: Sprague-Dawley rats; assay: Pharmacological characteristics at equivalent doses (2ED50), Group A compounds; type: in vivo; set-up: Sedation duration: unit not given here; details: 2ED50, tail vein; for Types and incidence of adverse reactions: (animals affected/animals)
[2] = test system: H295R cell line; assay: Adrenocortical function in vitro test: secretion of cortisol and corticosterone, Group A compounds; type: cell-based; details: H295 cells; for EC50: 0.1-10000 nM, HPLC-MS/MS
[3] = test system: Sprague-Dawley rats; assay: animal or person; details: for Approximate therapeutic index / Minimal lethal dose: rats
Protocol: Adult male Sprague-Dawley rats (250-300 g) were selected for the experiment. […] The anesthesia effects of the compounds were assessed in rats using a LORR assay and a period >30 s was considered as an indicator of general anesthesia.

[4] = Homo sapiens, read-out: EC50 (Corticosterone)
[5] = Homo sapiens, read-out: EC50 (Cortisol)

Compound	Onset time [1] [min]	Righting reflex duration [1] [min]	Corticosterone as an indicator to determine the presence of inhibition [2]	Cortisol as an indicator to determine the presence of inhibition [2]	EC50 [2, 4] [nM]	EC50 [2, 5] [nM]	ED50 ([3]; Rattus norvegicus) [mg/kg]	Approximate therapeutic index [3]	Minimal lethal dose [3] [mg/kg]	Types and incidence of adverse reactions [1]	Sedation duration [1]	EC50 ([2]; read-out: EC50 (Corticosterone)) [nM]	EC50 ([2]; read-out: EC50 (Cortisol)) [nM]	ED50 ([3]; LORR in rats, tail vein, brackets = 95% confidence limit)
CCOC(=O)c1ccnn1[C@H](C)c1ccccc1 [Compound A1]	0.56 ± 0.26	2.24 ± 1.29	0	0	> 1000	> 1000	1 to 2	>8	>16	–	–	–	–	–
CC#CC(C)(C)OC(=O)c1ccnn1[C@H](C)c1ccccc1 [Compound A12]	0.69 ± 0.22	3.16 ± 2.13	0	0	> 100	> 100	1 to 2	>4	>6	Red urine(8/8),; also recorded: Tremor(3/8),; also recorded: Euphoria(1/8), Hindlimb; also recorded: rigidity (1/8), Clonic; also recorded: convulsion(1/8), Tetany; also recorded: Apnea(1/8), Nod(1/8)	–	–	–	–
C[C@H](c1ccccc1)n1nccc1C(=O)OCC1CC1 [Compound A3]	0.13 ± 0.04	2.73 ± 1.08	0	0	–	–	–	>6	>8	Red urine(8/8), Hindlimb; also recorded: rigidity (1/8)	5.76 ± 0.80	> 1000	> 1000	C (C indicates that the measured ED50 is in the range of 1.00-2.00 mg/kg (excluding 1.00 mg/kg, including 2.00 mg/kg))
C=C=CC1(OC(=O)c2c(Cl)cnn2[C@H](C)c2ccccc2)COC1 [Compound A108]	0.26 ± 0.20	3.29 ± 1.20	0	0	> 100	> 100	2 to 6	>5	>15	Red urine(8/8), Hindlimb; also recorded: rigidity (7/8), the four; also recorded: limbs Tremor(3/8)	–	–	–	–
C[C@H](c1ccccc1)n1nccc1C(=O)OC1CSC1 [Compound A6]	0.38 ± 0.12	3.81 ± 2.17	0	0	> 1000	> 1000	2 to 6	>5	>13	Red urine(8/8), Facial; also recorded: muscle; also recorded: twitching(2/8), Hindlimb; also recorded: rigidity (1/8)	–	–	–	–
CO[C@H]1C[C@@H](OC(=O)c2ccnn2[C@H](C)c2ccccc2)C1 [Compound A25]	0.50 ± 0.12	2.6 ± 0.83	0	0	> 1000	> 1000	0.04 to 0.5	>21	>5	Red urine(8/8), Hindlimb; also recorded: rigidity (2/8), Tremor(1/8)	–	–	–	–
C=C=CC1(OC(=O)c2c(F)cnn2[C@H](C)c2ccccc2)COC1 [Compound A73]	0.42 ± 0.07	1.21 ± 0.45	0	0	> 1000	> 1000	0.04 to 0.5	>25	>2	Red and urine(8/8), Tremor(3/8), and Facial muscle and twitching(2/8), Euphoria and (1/8), Nod(1/8)	–	–	–	–
CC(=O)C1(OC(=O)c2ccnn2[C@H](C)c2ccccc2)COC1 [Compound A8]	0.57 ± 0.20	2.70 ± 2.52	0	0	> 1000	> 1000	1 to 2	>7	>9	Red urine(8/8),; also recorded: Tremor(2/8),; also recorded: Euphoria(1/8)	–	–	–	–
